In publication PMC6661771, “Indole hybridized diazenyl derivatives: synthesis, antimicrobial activity, cytotoxicity evaluation and docking studies” (BMC Chemistry, 2019):
≈ marks a conversion by molar mass, not a printed value. Where two headings read alike, the source gives them in different places.

Columns and labels:
[1] = system: HEK-293; assay: MTT cell proliferation assay, normal cells; format: cell-based; conditions: Homo sapiens, HEK293, HEK-293 normal cells, 48 h of drug treatment
Description: (§1) The cell lines used in study were initially procured from the National Centre for Cell Sciences (NCCS), Pune, India, and maintained in DMEM. The cell line was cultured in 25 cm^2 tissue culture flask with DMEM supplemented with 10% FBS, sodium bicarbonate, L-glutamine, and antibiotic solution containing: streptomycin (100 μg/ml), penicillin (100 U/ml). Cultured cell line was kept at 37 °C in a humidified 5% CO2 incubator (VWR, USA).
(§2) The compounds found to have good antimicrobial potential were then screened for their cytotoxicity using MTT […]) assay. 1 × 10^4 cells/well were seeded in 100 µl DMEM/MEM, supplemented with 10% FBS in each well of 96-well microculture plates and incubated for 24 h at 37 °C in a CO2 incubator. After incubation, all the prepared/synthesized compounds were added to the cells at 10, 25, 50 and 100 µg concentrations for 48 h. After 48 h of drug treatment, 10 µl MTT (5 mg/ml) was added to each well and the plates were further incubated for 4 h. Then the supernatant from each well was carefully removed, formazan crystals were dissolved in 100 µl of DMSO and absorbance at 570 nm wavelength was recorded on an ELISA reader. The IC50 value was calculated using the linear regression equation i.e. Y = Mx + C. Here, Y = 50, M and C values were derived from the viability graph. The assay was performed in triplicate.

[2] = system: A. fumigatus; assay: MIC by tube dilution method; format: cell-based; conditions: Aspergillus fumigatus, 168 h, 7 days at 25 °C, read-out: MIC
[3] = system: K. pneumonia; assay: Minimum bactericidal concentration (MBC); format: cell-based; conditions: Klebsiella pneumoniae
[4] = system: S. enterica; assay: MIC by tube dilution method; format: cell-based; conditions: Salmonella enterica, 24 h, 24 h at 37 °C, read-out: MIC
[5] = system: A. niger; assay: Minimum fungicidal concentration (MFC); format: cell-based; conditions: Aspergillus niger, read-out: MBC/MFC
[6] = system: A. niger; assay: MIC by tube dilution method; format: cell-based; conditions: Aspergillus niger, 168 h, 7 days at 25 °C, read-out: MIC
[7] = system: B. subtilis; assay: MIC by tube dilution method; format: cell-based; conditions: Bacillus subtilis, 24 h at 37 °C, read-out: MIC
[8] = system: K. pneumonia; assay: MIC by tube dilution method; format: cell-based; conditions: 24 h at 37 °C
[9] = system: E. coli; assay: MIC by tube dilution method; format: cell-based; conditions: 24 h at 37 °C
[10] = system: S. enterica; assay: Minimum bactericidal concentration (MBC); format: cell-based; conditions: Salmonella enterica, read-out: MBC/MFC
Description: After MIC assessment, the indole derivatives (DS1–DS21), were additionally evaluated for MBC and MFC values. […] The 10–15 ml of nutrient agar and Sabouraud dextrose agar was added to the petri plates for bacterial and fungal samples respectively with gentle shaking of plates in order to mix the culture throughout the media. Allowed the media to solidify. The petri plates were then incubated for the predefined time and temperature as referenced already for bacterial and fungal cultures respectively. The plates were then investigated visually for the development of microbial growth. The MBC and MFC were stated as the minimum concentration of the compounds in aliquots showing no visual growth after incubation.

[11] = system: B. subtilis; assay: Minimum bactericidal concentration (MBC); format: cell-based; conditions: Bacillus subtilis
[12] = system: A. fumigatus; assay: Minimum fungicidal concentration (MFC); format: cell-based; conditions: Aspergillus fumigatus, read-out: MBC/MFC
[13] = system: S. aureus; assay: Minimum bactericidal concentration (MBC); format: cell-based; conditions: Staphylococcus aureus
[14] = system: S. aureus; assay: MIC by tube dilution method; format: cell-based; conditions: Staphylococcus aureus, 24 h at 37 °C, read-out: MIC
[15] = system: K562; assay: MTT cell proliferation assay; format: cell-based; conditions: Homo sapiens, K562 leukemia, 48 h of drug treatment
Description: as §1, §2

[16] = system: MDA MB 231; assay: MTT cell proliferation assay; format: cell-based; conditions: MDA MB 231 breast cancer, 48 h of drug treatment
Description: as §1, §2

[17] = system: E. coli; assay: Minimum bactericidal concentration (MBC); format: cell-based; conditions: Escherichia coli
[18] = system: HCT 116; assay: MTT cell proliferation assay; format: cell-based; conditions: Homo sapiens, HCT-116, 48 h, HCT 116 colon cancer, 48 h of drug treatment
Description: as §1, §2

[19] = Klebsiella pneumoniae, 24 h, read-out: MIC
[20] = Escherichia coli, 24 h, read-out: MIC
[21] = Homo sapiens, MDA-MB-231, 48 h, read-out: IC50

Row | Structure (SMILES) | IC50 [1] [µg/mL] | MIC [2] [µg/mL] | MBC [3] [µg/mL] | MIC [4] [µg/mL] | MFC [5] [µg/mL] | MIC [6] [µg/mL] | MIC [7] [µg/mL] | MIC [8, 19] [µg/mL] | MIC [9, 20] [µg/mL] | melting point [°C] | MBC ([10]; S. enterica, MBC) [µg/mL] | MBC [11] [µg/mL] | MFC [12] [µg/mL] | MBC [13] [µg/mL] | MIC [14] [µg/mL] | IC50 [15] [µg/mL] | IC50 [16, 21] [µg/mL] | IC50 [16] [µg/mL] | MBC [17] [µg/mL] | IC50 [18] [µg/mL] | further results
1 | C/C(=N/CCNc1cccc2ccccc12)c1ccc(/N=N\c2c[nH]c3ccccc23)cc1 [DS-20, (Z)-N1-(1-(4-((Z)-(1H-Indol-3-yl)diazenyl)phenyl)ethylidene)-N2-(naphthalen-1-yl)ethane-1,2-diamine] | 233 ± 4.68 (≈ 539 µM) | 62.5 (≈ 145 µM) | 15.6 (≈ 36.2 µM) | 15.6 (≈ 36.2 µM) | 125 (≈ 290 µM) | 62.5 (≈ 145 µM) | 125 (≈ 290 µM) | 3.9 (≈ 9.04 µM) | 1.95 (≈ 4.52 µM) | 110 to 115 | 31.2 (≈ 72.4 µM) | 125 (≈ 290 µM) | 125 (≈ 290 µM) | 62.5 (≈ 145 µM) | 125 (≈ 290 µM) | 136 ± 4.74 (≈ 315 µM) | 19 to 65 (≈ 44 to 151 µM) | 20.95 ± 1.93 (≈ 48.5 µM) |  |  | 
2 | C/C(=N/c1ccc(C(=O)O)cc1)c1ccc(/N=N\c2c[nH]c3ccccc23)cc1 [DS-14, 4-((Z)-(1-(4-((Z)-(1H-Indol-3-yl)diazenyl)phenyl)ethylidene)amino)benzoic acid] | 244 ± 3.78 (≈ 638 µM) | 31.2 (≈ 81.7 µM) | 3.9 to 7.81 (≈ 10.2 to 20.4 µM) | 1.95 to 3.9 (≈ 5.1 to 10.2 µM) | 125 (≈ 327 µM) | 62.5 (≈ 163 µM) | 31.2 (≈ 81.7 µM) | 1.95 to 3.9 (≈ 5.1 to 10.2 µM) | 1.95 to 3.9 (≈ 5.1 to 10.2 µM) | 205 to 210 | 7.81 (≈ 20.4 µM) | 62.5 (≈ 163 µM) | 125 (≈ 327 µM) | 62.5 (≈ 163 µM) | 62.5 (≈ 163 µM) | 112 ± 3.64 (≈ 294 µM) | 19 to 65 (≈ 49.7 to 170 µM) | 19.10 ± 1.43 (≈ 49.9 µM) |  |  | MIC [8]: 1.95 µg/mL (≈ 5.1 µM); MIC [9]: 3.90 µg/mL (≈ 10.2 µM)
3 | C/C(=N/c1cc(Cl)ccc1Cl)c1ccc(/N=N\c2c[nH]c3ccc([N+](=O)[O-])cc23)cc1 [DS-10, (Z)-2,5-Dichloro-N-(1-(4-((Z)-(5-nitro-1H-indol-3-yl)diazenyl)phenyl)ethylidene)aniline] | 274 ± 4.58 (≈ 606 µM) | 125 (≈ 276 µM) |  | 31.2 (≈ 69.1 µM) | 125 (≈ 276 µM) | 62.5 (≈ 138 µM) | 62.5 (≈ 138 µM) | 3.9 (≈ 8.62 µM) | 1.95 (≈ 4.31 µM) | 210 to 215 | 62.5 (≈ 138 µM) | 125 (≈ 276 µM) | 125 (≈ 276 µM) | 125 (≈ 276 µM) | 62.5 (≈ 138 µM) | 199 ± 3.13 (≈ 439 µM) | 130 ± 3.51 (≈ 287 µM) |  | 31.2 (≈ 69.1 µM) | 204.9 ± 1.62 (≈ 453 µM) | 
4 | CCOC(=O)c1c(/N=C(/C)c2ccc(/N=N\c3c[nH]c4ccccc34)cc2)sc2c1CCCC2 [DS-2, Ethyl 2-((Z)-(1-(4-((Z)-(1H-indol-3-yl)diazenyl)phenyl)ethylidene)amino)-4,5,6,7-tetrahydrobenzo[b]thiophene-3-carboxylate] |  | 15.6 (≈ 33.2 µM) | 62.5 (≈ 133 µM) | 15.6 (≈ 33.2 µM) | 125 (≈ 266 µM) | 62.5 (≈ 133 µM) | 31.2 (≈ 66.4 µM) | 31.2 (≈ 66.4 µM) | 15.6 (≈ 33.2 µM) | 260 to 265 |  | 125 (≈ 266 µM) | 62.5 (≈ 133 µM) | 125 (≈ 266 µM) | 62.5 (≈ 133 µM) | 140 ± 4.4 (≈ 298 µM) | 57.6 ± 3.68 (≈ 122 µM) |  | 16.2 (≈ 34.5 µM) | 117 ± 4.28 (≈ 248 µM) | MBC [10]: 15.6 µg/mL (≈ 33.2 µM)
5 | C/C(=N/c1nnc(-c2ccc([N+](=O)[O-])cc2Cl)s1)c1ccc(/N=N\c2c[nH]c3ccc([N+](=O)[O-])cc23)cc1 [DS-3, (Z)-5-(2-Chloro-4-nitrophenyl)-N-(1-(4-((Z)-(5-nitro-1H-indol-3-yl)diazenyl)phenyl)ethylidene)-1,3,4-thiadiazol-2-amine] | 311.2 ± 1.76 (≈ 569 µM) | 15.6 (≈ 28.6 µM) | 31.2 (≈ 57.1 µM) | 31.2 (≈ 57.1 µM) | 125 (≈ 229 µM) | 62.5 (≈ 114 µM) | 31.2 (≈ 57.1 µM) | 1.95 (≈ 3.57 µM) | 3.9 (≈ 7.13 µM) | 155 to 160 | 31.2 (≈ 57.1 µM) | 62.5 (≈ 114 µM) | 62.5 (≈ 114 µM) | 62.5 (≈ 114 µM) | 62.5 (≈ 114 µM) | 146 ± 2.11 (≈ 267 µM) | 46 ± 1.83 (≈ 84 µM) |  | 31.2 (≈ 57.1 µM) | 110 ± 2.55 (≈ 201 µM) | 
6 | C/C(=N/c1c(C)n(C)n(-c2ccccc2)c1=O)c1ccc(/N=N\c2c[nH]c3ccc([N+](=O)[O-])cc23)cc1 [DS-6, 1,5-Dimethyl-4-((Z)-(1-(4-((Z)-(5-nitro-1H-indol-3-yl)diazenyl)phenyl)ethylidene)amino)-2-phenyl-1H-pyrazol-3(2H)-one] | 257.8 ± 0.57 (≈ 522 µM) | 31.2 (≈ 63.3 µM) |  | 31.2 (≈ 63.3 µM) | 125 (≈ 253 µM) | 62.5 (≈ 127 µM) | 31.2 (≈ 63.3 µM) | 7.81 (≈ 15.8 µM) | 1.95 (≈ 3.95 µM) | 170 to 175 | 31.2 (≈ 63.3 µM) | 62.5 (≈ 127 µM) | 125 (≈ 253 µM) | 31.2 (≈ 63.3 µM) | 31.2 (≈ 63.3 µM) | 188 ± 1.94 (≈ 380 µM) | 119 ± 1.92 (≈ 241 µM) |  | 3.9 to 7.81 (≈ 7.9 to 15.8 µM) | 139 ± 4.29 (≈ 282 µM) | 
7 | C/C(=N/c1nc2ccccc2s1)c1ccc(/N=N\c2c[nH]c3ccc([N+](=O)[O-])cc23)cc1 [DS-21, (Z)-N-(1-(4-((Z)-(5-Nitro-1H-indol-3-yl)diazenyl)phenyl)ethylidene)benzo[d]thiazol-2-amine] | 142 ± 3.25 (≈ 322 µM) | 125 (≈ 284 µM) |  | 31.2 (≈ 70.9 µM) | 125 (≈ 284 µM) | 125 (≈ 284 µM) | 31.2 (≈ 70.9 µM) | 3.9 (≈ 8.85 µM) | 3.9 (≈ 8.85 µM) | 130 to 135 | 31.2 (≈ 70.9 µM) | 62.5 (≈ 142 µM) | 125 (≈ 284 µM) | 62.5 (≈ 142 µM) | 62.5 (≈ 142 µM) | 158 ± 3.73 (≈ 359 µM) | 49.3 ± 4.15 (≈ 112 µM) |  |  | 125 ± 1.33 (≈ 283 µM) | 
8 | COc1cccc2c1C(=O)c1c(O)c3c(c(O)c1C2=O)C[C@@](O)(C(=O)CO)C[C@@H]3O[C@H]1C[C@H](N)[C@H](O)[C@H](C)O1 [DOX, doxorubicin, reference compound] |  |  |  |  |  |  |  |  |  |  |  |  |  |  |  | 2.62 ± 0.65 (≈ 4.82 µM) | 3 (≈ 5.52 µM) | 3.08 ± 0.95 (≈ 5.67 µM) |  | 3.37 ± 0.37 (≈ 6.2 µM) | 
